# Data as given in US11365199B2, “Pyrazole compounds as modulators of FSHR and uses thereof” (Merck Patent GmbH, priority 2013, dated 2022).
# Target: T1, FSHR (Homo sapiens, UniProt P23945)
# T1 construct: expressed in transfected cells; host or cells: CHO (Cho-FSHR-LUC-1-1-43)
# T1 sequence (P23945 18-695): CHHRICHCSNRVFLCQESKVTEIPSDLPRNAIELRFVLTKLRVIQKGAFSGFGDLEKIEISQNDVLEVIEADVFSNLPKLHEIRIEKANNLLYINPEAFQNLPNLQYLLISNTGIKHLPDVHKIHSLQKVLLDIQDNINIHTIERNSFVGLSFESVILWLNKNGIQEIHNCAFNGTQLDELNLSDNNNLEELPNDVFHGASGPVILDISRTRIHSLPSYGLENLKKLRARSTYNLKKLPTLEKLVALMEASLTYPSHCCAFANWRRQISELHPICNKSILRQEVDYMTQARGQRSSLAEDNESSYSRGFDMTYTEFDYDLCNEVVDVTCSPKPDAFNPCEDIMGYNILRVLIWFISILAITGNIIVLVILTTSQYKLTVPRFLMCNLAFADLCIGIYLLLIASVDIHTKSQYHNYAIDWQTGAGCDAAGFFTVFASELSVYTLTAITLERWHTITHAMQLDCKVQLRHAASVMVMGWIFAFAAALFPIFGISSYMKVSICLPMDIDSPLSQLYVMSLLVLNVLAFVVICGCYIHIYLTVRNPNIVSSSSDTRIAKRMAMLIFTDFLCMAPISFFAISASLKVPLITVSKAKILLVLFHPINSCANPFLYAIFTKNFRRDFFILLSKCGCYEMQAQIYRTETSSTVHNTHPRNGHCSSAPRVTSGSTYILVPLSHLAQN
# Experiment: EC50 of cyclic AMP production in CHO FSHR cells + EC20 FSH (Assay A)
# Format: cell-based
# Conditions: CHO FSHR cells + EC20 FSH, cAMP HTRF; read-out: Assay A: EC50 of cyclic AMP production
# Experimental: EC50 of Cyclic AMP Production in CHO FSHR Cells+EC20 FSH (Assay A)
# 2500 Cho-FSHR-LUC-1-1-43 cells were plated per well in 5 μl of phenol red free DMEM/F12+1% FBS. Cells were plated in 384 well, solid white low volume plates (Greiner 784075) by Multidrop. Cells were assayed by adding 100 μl of 2×EC20 FSH/IBMX in DMEM/F12+0.1% BSA) by Multidrop to 2 μl of test compound stamped in 384 well plates (compounds are diluted 1:50). The final FSH concentration was […], and the final IBMX concentration was 200 μM. The compound plate map was as follows: Column 1: 2 μl of DMSO; Column 2: 2 μl of DMSO; Columns 3-12 and 13-24: 2 μl of test compound, diluted 1:4 in 100% DMSO, or 2 μl of FSH, diluted 1:4 in DMEM/F12+0.1% BSA. The starting concentration for FSH was 50 nM (final concentration was 0.5 nM). Furthermore, Column 23 contained 2 μl of EC100 FSH reference (100×) (diluted in DMEM/F12+0.1% BSA) at a final concentration of 0.5 nM, and Column 24 contained 2 μl of 1 mM AS707664/2 reference compound 2. 5 μl of compound+EC20 FSH mixture were transferred to cell plates (1:2 dilution into 5 μl of cell media) The plates were incubated at 37° C. for 1 h. 10 μl of mixed HTRF (CisBio #62AM4PEC) reagents were added per well and incubated at room temperature for 1 h. The plates were read on Envision using the cAMP HTRF—low volume 384 well protocol. The readout was the calculated fluorescence ratio (665 nm/620 nm). Values given in percent (%) indicate the percental effect (response) at a certain concentration of agonist relative to the maximum response of the FSH standard.
row,Compound,EC50 [nM]
1,"COc1cc2c(cc1C#N)-c1c(c(C(=O)N3CCOCC3(C)C)nn1-c1ccsc1)CO2 [Compound 86, 3-(3,3-Dimethyl-morpholine-4-carbonyl)-7-methoxy-1-thiophen-3-yl-1,4-dihydro-chromeno[4,3-c]pyrazole-8-carbonitrile]",< 100
2,"COc1cc2c(cc1-c1ccnn1C)-c1c(c(C(=O)NC3(CO)COC3)nn1-c1ccsc1)CO2 [Compound 111, 7-Methoxy-8-(2-methyl-2H-pyrazol-3-yl)-1-thiophen-3-yl-1,4-dihydro-chromeno[4,3-c]pyrazole-3-carboxylic acid (3-hydroxymethyl-oxetan-3-yl)-amide]",100 to 1000
3,"COc1cc2c(cc1CN)-c1c(c(C(=O)N3CCOCC3(C)C)nn1-c1ccsc1)CO2 [Compound 166, (8-Aminomethyl-7-methoxy-1-thiophen-3-yl-1,4-dihydro-chromeno[4,3-c]pyrazol-3-yl)-(3,3-dimethyl-morpholin-4-yl)-methanone]",1000 to 5000
4,"COc1cc2c(cc1C=C(C)C)-c1c(c(C(=O)N3CCCC(C(N)=O)CC3)nn1-c1ccsc1)CO2 (stereo not drawn) [Compound 43, 1-[7-methoxy-8-(2-methyl-propenyl)-1-thiophen-3-yl-1,4-dihydro-chromeno[4,3-c]pyrazole-3-carbonyl]-azepane-4-carboxylic Acid Amide]",< 100
5,"COc1cc2c(cc1-c1cn(C)cn1)-c1c(c(C(=O)N(C)C(C)(C)C)nn1-c1ccsc1)CO2 [Compound 129, 7-Methoxy-8-(1-methyl-1H-imidazol-4-yl)-1-thiophen-3-yl-1,4-dihydro-chromeno[4,3-c]pyrazole-3-carboxylic acid tert-butyl-methyl-amide]",< 100
6,"COc1cc2c(cc1-c1ccn(C)c1)-c1c(c(C(=O)NC3CC(O)C3)nn1-c1ccsc1)CO2 (stereo not drawn) [Compound 136, 7-Methoxy-8-(1-methyl-1H-pyrrol-3-yl)-1-thiophen-3-yl-1,4-dihydro-chromeno[4,3-c]pyrazole-3-carboxylic acid (3-hydroxy-cyclobutyl)-amide]",> 5000
7,"COc1cc2c(cc1C=C(C)C)-c1c(c(C(=O)N3CCC[C@@H](C(=O)N4CCC4)CC3)nn1-c1ccsc1)CO2 [Compound 45, [(R)-4-(Azetidine-1-carbonyl)-azepan-1-yl]-[7-methoxy-8-(2-methyl-propenyl)-1-thiophen-3-yl-1,4-dihydro-chromeno[4,3-c]pyrazol-3-yl]-methanone]",100 to 1000
8,"COc1cc2c(cc1-c1ccn(C)c1)-c1c(c(C(=O)N[C@H]3CC[C@@H](O)C3)nn1-c1ccsc1)CO2 [Compound 173, 7-Methoxy-8-(1-methyl-1H-pyrrol-3-yl)-1-thiophen-3-yl-1,4-dihydro-chromeno[4,3-c]pyrazole-3-carboxylic acid ((1S,3R)-3-hydroxy-cyclopentyl)-amide]",> 5000
9,"COc1cc2c(cc1-c1ccn(C)n1)-c1c(c(C(=O)N3CCNCC34CC4)nn1-c1ccsc1)CO2 [Compound 171, (4,7-Diaza-spiro[2.5]oct-4-yl)-[7-methoxy-8-(1-methyl-1H-pyrazol-3-yl)-1-thiophen-3-yl-1,4-dihydro-chromeno[4,3-c]pyrazol-3-yl]-methanone]",100 to 1000
10,"CNC(=O)C1CCCN(C(=O)c2nn(-c3ccsc3)c3c2COc2cc(OC)c(C=C(C)C)cc2-3)CC1 (stereo not drawn) [Compound 42, 1-[7-Methoxy-8-(2-methyl-propenyl)-1-thiophen-3-yl-1,4-dihydro-chromeno[4,3-c]pyrazole-3-carbonyl]-azepane-4-carboxylic Acid Methylamide]",100 to 1000
11,"COc1cc2c(cc1-c1cnn(CCN(C)C)c1)-c1c(c(C(=O)N3CCOCC3(C)C)nn1-c1ccsc1)CO2 [Compound 203, {8-[1-(2-Dimethylamino-ethyl)-1H-pyrazol-4-yl]-7-methoxy-1-thiophen-3-yl-1,4-dihydro-chromeno[4,3-c]pyrazol-3-yl}-(3,3-dimethyl-morpholin-4-yl)-methanone]",100 to 1000
12,[2H]C([2H])([2H])OC1CCN(C(=O)c2nn(-c3ccsc3)c3c2COc2cc(OC)c(C=C(C)C)cc2-3)C1 (stereo not drawn) [Compound 49],100 to 1000
13,"COc1cc2c(cc1-c1cnoc1)-c1c(c(C(=O)N(C)C(C)(C)C)nn1-c1ccsc1)CO2 [Compound 72, 8-Isoxazol-4-yl-7-methoxy-1-thiophen-3-yl-1,4-dihydro-chromeno[4,3-c]pyrazole-3-carboxylic acid tert-butyl-methyl-amide]",< 100
14,[2H]C([2H])([2H])O[C@H]1CC[C@H](N(C(=O)c2nn(-c3ccsc3)c3c2COc2cc(OC)c(-c4ccn(C)c4)cc2-3)C([2H])([2H])[2H])C1 [Compound 197],1000 to 5000
15,COc1cc2c(cc1-c1ccsc1C)-c1c(c(C(=O)N(C)C(C)(C)C)nn1-c1ccsc1)CO2 [Compound 75],< 100
16,"COc1cc2c(cc1-c1cn[nH]c1)-c1c(c(C(=O)N3CCOCC3(C)C)nn1-c1ccsc1)CO2 [Compound 80, (3,3-Dimethyl-morpholin-4-yl)-[7-methoxy-8-(1H-pyrazol-4-yl)-1-thiophen-3-yl-1,4-dihydro-chromeno[4,3-c]pyrazol-3-yl]-methanone]",< 100
17,"COc1cc2c(cc1-c1ccn(C)c1)-c1c(c(C(=O)N(C)CC3(C)COC3)nn1-c1ccsc1)CO2 [Compound 101, 7-Methoxy-8-(1-methyl-1H-pyrrol-3-yl)-1-thiophen-3-yl-1,4-dihydro-chromeno[4,3-c]pyrazole-3-carboxylic acid methyl-(3-methyl-oxetan-3-ylmethyl)-amide]",< 100
18,"COc1cc2c(cc1S(=O)(=O)CC(C)C)-c1c(c(C(=O)N3CCOCC3(C)C)nn1-c1ccsc1)CO2 [Compound 127, (3,3-Dimethyl-morpholin-4-yl)-[7-methoxy-8-(2-methyl-propane-1-sulfonyl)-1-thiophen-3-yl-1,4-dihydro-chromeno[4,3-c]pyrazol-3-yl]-methanone]",> 5000
19,"CCn1nccc1-c1cc2c(cc1OC)OCc1c(C(=O)N3CCOCC3(C)C)nn(-c3ccsc3)c1-2 [Compound 213, (3,3-Dimethyl-morpholin-4-yl)-[8-(2-ethyl-2H-pyrazol-3-yl)-7-methoxy-1-thiophen-3-yl-1,4-dihydro-chromeno[4,3-c]pyrazol-3-yl]-methanone]",< 100
20,"COc1cc2c(cc1-c1cn(C)nc1C)-c1c(c(C(=O)N3CCOCC3(C)C)nn1-c1ccsc1)CO2 [Compound 123, (3,3-Dimethyl-morpholin-4-yl)-[8-(1,3-dimethyl-1H-pyrazol-4-yl)-7-methoxy-1-thiophen-3-yl-1,4-dihydro-chromeno[4,3-c]pyrazol-3-yl]-methanone]",< 100
21,"COc1cc2c(cc1-c1ccn(C(C)C)n1)-c1c(c(C(=O)N3CCOCC3(C)C)nn1-c1ccsc1)CO2 [Compound 195, (3,3-Dimethyl-morpholin-4-yl)-[8-(1-isopropyl-1H-pyrazol-3-yl)-7-methoxy-1-thiophen-3-yl-1,4-dihydro-chromeno[4,3-c]pyrazol-3-yl]-methanone]",< 100
22,"COc1cc2c(cc1C=C(C)C)-c1c(c(C(=O)N3CCC(C(=O)O)CC3)nn1-c1ccsc1)CO2 [Compound 16, 1-{7-Methoxy-8-(2-methyl-propenyl)-1-thiophen-3-yl-1,4-dihydro-chromeno[4,3-c]pyrazole-3-carbonyl]-piperidine-4-carboxylic acid]",> 5000
23,"COc1cc2c(cc1-c1ccn(C)n1)-c1c(c(C(=O)NCC3(O)COC3)nn1-c1ccsc1)CO2 [Compound 165, 7-Methoxy-8-(1-methyl-1H-pyrazol-3-yl)-1-thiophen-3-yl-1,4-dihydro-chromeno[4,3-c]pyrazole-3-carboxylic acid (3-hydroxy-oxetan-3-ylmethyl)-amide]",> 5000
24,[2H]C([2H])([2H])N(CCN1CCOC1=O)C(=O)c1nn(-c2ccsc2)c2c1COc1cc(OC)c(-c3cn[nH]c3)cc1-2 [Compound 85],< 100
